Entries after “also recorded” stand apart in the source; their conditions may differ. No end group written: not given here.

In one assay the test system is B. longum NCC 2705. The assay is described as follows: serpin protein levels (ELISA) in B. longum NCC 2705 grown on different carbohydrates. Format: cell-based, Bifidobacterium longum subsp longum. On the procedure: B. longum strain CNCM 1-2618 (NCC 2705) was grown in Biolector (growth conditions—anaerobic, 37 00) in MRS+5 mM L-cysteine (MRSc) base without sugar, to which different carbohydrates were added.
(§1) 48-well microtiter plate with pH sensor and dissolved oxygen (DO) sensor were used to culture the strains in Biolector (m2p-labs Aachen, Germany). It was continuously shaken to prevent bacteria aggregation for 8 h. Cultures were harvested by centrifugation and supernatant was removed. Pellet was resuspended in PBS supplemented with halt protease inhibitor (Sigma) and lysed using glassbeads. Lysate containing both soluble and insoluble material was then collected.
(§2) Total protein content was measured using Pierce BCA kit (Thermofisher) and serpin protein concentration was determined using ELISA.
B. longum NCC 2705 was cultured in Biolector (as described in Example 1) in a base of MRSc without sugar, with the addition of different glucose & galactose ratios, to a final concentration of 1%. Cultures were collected after 18 h of growth and analyzed for total & serpin protein levels (as described in Example 1).
B. longum NCC 2705 was grown on an MRSc base without sugar, with addition of different commercially available galactooligosaccharides (GOS) at different concentrations. […] Obtained pellets were analyzed for total and serpin protein content (see Example 1). […]

For assay [1], the system named is B. longum subsp. longum strains. The assay is described as follows: serpin protein levels (ELISA) in B. longum subsp. longum strains. Format: cell-based, Bifidobacterium longum subsp longum. On the procedure: as §1, §2
The serpin encoding gene and its surrounding is highly conserved within the B. longum subsp. longum species. Strains of B. longum subsp. longum were selected to represent the entire span of the genetic phylogenetic tree (Table 2). […] Obtained pellets were further analyzed for total and serpin protein content (see example 1).
Serpin is furthermore conserved within a restricted number of Bifidobacteria species (Turroni, F. et al. Characterization of the serpin-encoding gene of Bifidobacterium breve 210B. Appl Environ Microbiol 76, 3206-3219, doi:10.1128/AEM.02938-09 (2010)). […] Obtained pellets were further analyzed for total and serpin protein content (see example 1).
(ELISA stands for enzyme-linked immunosorbent assay.)

For a further assay, the system named is B. breve ATCC 15700 (T). The assay is described as follows: serpin protein levels (ELISA) in B. breve. Format: cell-based. Particulars: 18 h (FIG. 7). On the procedure:
as §1, §2
(§3) Serpin is furthermore conserved within a restricted number of Bifidobacteria species (Turroni, F. et al. Characterization of the serpin-encoding gene of Bifidobacterium breve 210B. Appl Environ Microbiol 76, 3206-3219, doi:10.1128/AEM.02938-09 (2010)). Strains belonging to these species (Table 3) were cultured in Biolector (see example 1) in a MRSc base without sugar, to which 1% glucose, 1% galactose was added. […] Cultures were grown for 18 h and harvested. Obtained pellets were further analyzed for total and serpin protein content (see example 1).

For assay [2], the system named is B. longum subsp. infantis ATCC 15697 (T). The assay is described as follows: serpin protein levels (ELISA) in B. longum subsp infantis. Particulars: 1% galactose, 18 h (FIG. 7). Format: cell-based. On the procedure: as §1, §2, §3
In assay [3] the test system is B. longum subsp. suis ATCC 27533 (T). The assay is described as follows: serpin protein levels (ELISA) in B. longum subsp suis. It counts as cell-based. Particulars: 1% galactose, 18 h (FIG. 7). On the procedure:
as §1, §2, §3

The subject of assay [4] is B. longum subsp. longum strains. The assay is described as follows: growth of B. longum subsp. longum strains on galactose as sole carbohydrate source. As to conditions: 1% galactose, MRSc base without sugar. It counts as cell-based, Bifidobacterium longum subsp longum. Here is the method:
The serpin encoding gene and its surrounding is highly conserved within the B. longum subsp. longum species. Strains of B. longum subsp. longum were selected to represent the entire span of the genetic phylogenetic tree (Table 2). All strains were cultured in Biolector (according to example 1) in a MRSc base without sugar, to which 1% glucose, 1% galactose or a mix of glucose & galactose (respectively 0.2 & 0.8%) was added. Cultures were grown for 18 h and harvested. Obtained pellets were further analyzed for total and serpin protein content (see example 1).

The next assay concerns the target T1, transglutaminase 2 (TG2) (Homo sapiens, UniProt P21980).
T1 sequence (P21980 1-687): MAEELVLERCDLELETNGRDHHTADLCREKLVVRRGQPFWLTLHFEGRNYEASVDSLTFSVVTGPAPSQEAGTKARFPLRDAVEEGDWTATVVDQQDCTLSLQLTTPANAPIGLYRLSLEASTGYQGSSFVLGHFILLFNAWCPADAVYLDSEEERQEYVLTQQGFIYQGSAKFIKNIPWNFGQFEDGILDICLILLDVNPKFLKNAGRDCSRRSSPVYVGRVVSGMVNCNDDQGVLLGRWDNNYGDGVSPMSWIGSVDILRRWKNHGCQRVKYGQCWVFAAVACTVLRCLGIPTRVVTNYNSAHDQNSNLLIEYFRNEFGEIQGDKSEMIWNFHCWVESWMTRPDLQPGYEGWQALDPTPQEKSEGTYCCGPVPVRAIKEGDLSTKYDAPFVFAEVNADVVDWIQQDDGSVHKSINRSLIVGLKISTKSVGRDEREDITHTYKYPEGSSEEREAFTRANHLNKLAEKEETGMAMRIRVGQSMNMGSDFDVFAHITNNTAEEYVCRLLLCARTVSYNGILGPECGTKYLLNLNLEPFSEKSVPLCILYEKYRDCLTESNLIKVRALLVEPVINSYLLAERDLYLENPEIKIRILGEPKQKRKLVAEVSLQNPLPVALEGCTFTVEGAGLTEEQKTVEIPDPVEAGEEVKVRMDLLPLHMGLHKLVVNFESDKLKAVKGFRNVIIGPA
As to conditions: in-vitro; inhibits deamidation of 33-mer gliadin peptide (McCarville et al. 2015); cited from earlier work.

For assay [5], the system named is various forms of elastases and proteinase. Particulars: Ying & Simon, 1993; cited from earlier work.
Assay [6] has as its system mouse model of gluten sensitivity. As to conditions: elafin delivered by a recombinant Lactococcus lactis (Galipeau et al., 2014); cited from earlier work.

Consider `O=C[C@H](O)[C@@H](O)[C@@H](O)[C@H](O)CO` [galactose], for which the “production of serpin in the presence of glucose” value in the assay with B. longum NCC 2705 (different glucose & galactose ratios, final concentration 1%, 18 h, only when glucose is depleted during fermentation (FIG. 2)) was “can induce production of serpin”. The serpin protein levels result in the assay on B. longum NCC 2705 (grown for 8 h in MRSc base without sugar plus carbohydrate, compared to all other sugars tested (FIG. 1)) is “increase”; in [1] (1% galactose or 0.2% glucose & 0.8% galactose vs 1% glucose, 18 h (FIGS. 5-7)) it was “increased in all B. longum subsp. longum strains; also recorded: significant serpin protein increase”. In addition, the serpin induction result in the assay with B. breve ATCC 15700 (T) (1% galactose) was “none of the B. breve ATCC 15700 (T), B. longum subsp infantis nor B. longum subsp suis strains were induced”; in assay [2], “neither induced by galactose”; in [3], “neither induced by galactose”. Further, the “ability to grow on galactose as sole carbohydrate source” value in [4] was “Not all strains of B. longum subsp. longum were able to grow”.
As for “Elafin: human serine protease inhibitor (AQEPVKGPVSTKPGSCPIILIRCAMLNPPNRCLKDTDCPGIKKCCEGSCGMACFVPQ; ends and bridges not checked; cysteine pairing not given here; UniProt P19957 61-117, looked up)”, in the assay with transglutaminase 2 (TG2), the “inhibition of transglutaminase 2 (TG2)” value is recorded as “moderately inhibits”. In [5], the “inhibitory capacity against elastases and proteinase” value was “potent inhibitory capacity”. For the same molecule, the “gluten-induced pathology and intestine inflammation” value in [6] is “reduce gluten-induced pathology and normalise intestine inflammation”.

B1: Papain: papain (from Worthington), previously demonstrated to induce serpin in B. breve (protein, UniProt P00784 134-345, looked up)
Papain: IPEYVDWRQKGAVTPVKNQGSCGSCWAFSAVVTIEGIIKIRTGNLNEYSEQELLDCDRRSYGCNGGYPWSALQLVAQYGIHYRNTYPYEGVQRYCRSREKGPYAAKTDGVRQVQPYNEGALLYSIANQPVSVVLEAAGKDFQLYRGGIFVGPCGNKVDHAVAAVGYGPNYILIKNSWGTGWGENGYIRIKRGTGNSYGVCGLYTSSFYPVKN
As to B1, the serpin levels result in assay [1] (0.05 mg/ml papain on top of 1% glucose, 18 h (FIG. 7)) was “did not increase serpin levels”; in the assay with B. breve ATCC 15700 (T) (0.05 mg/ml papain on top of 1% glucose) it was “did in the B. breve ATCC 15700 (T) strain”.
